Assay results reported in patent US11306361B2, “Pathology prognosis method” (CENTRE NATIONAL DE LA RECHERCHE SCIENTIFIQUE, priority 2015, dated 2022).
Numbered stars: 1 amine (or outer) side, 2 acyl side, 3 side chain; on linkers, the order of the positions; unused ones are H or OH. Bridge positions count the residues as written; N and C are the ends. Square brackets hold non-standard residues; d marks the D form. Peptide text beside a SMILES is read from it. I, II: the chains in the order shown. Actinocin(9to1) = Cc1c2oc3c(C)ccc(C(=O)[*:1])c3nc-2c(C(=O)[*:2])c(N)c1=O; NMeV = CN[C@H](C(=O)O)C(C)C; Sar = CNCC(=O)O

What was measured:
[1] = tested on: RAS or ErbB2 cancer cells; assay: Western blot of cleaved PARP in tumor cells; type: cell-based, mouse; conditions: after treatment with 5-FU; limited by Cyclin D1; FIG. 27
Source text: (§1) The antibodies used are the following: anti-HA (HA.11 Clone 16B12, Eurogentec or Anti-HA EPITOPE TAG-600-401-384, Tebu-bio or Hemagglutinin (HA) Rabbit Polyclonal Antibody, Life Technologies), anti-Cyclin D1 (sc-450, Santa Cruz or MS-210-PABX (AB1), Fisher Scientific or RB-010-PABX (AB3), Fisher scientific), anti-RB total (sc-74562, Santa Cruz), anti-Phospho-RB (Ser780) (9307, Cell signaling), anti-Actin (ab6276, Abcam), anti-Tubulin (T9026, Sigma-Aldrich), anti-Ras (BD610002, BD Biosciences), anti-FLAG (F7425, Sigma-Aldrich), anti-cleaved PARP (ab32064, Abcam), anti-VASA (ab13840, Abcam), anti-Thyrosine Hydroxylase (MAB318, Merck Millipore). The secondary antibodies used are coupled with peroxidase (signaling), and the detection of the complexes is done using the enhanced chemiluminescence detection kit (Millipore).

[2] = tested on: MEF cells transformed with RAS-G12V/DNP53 and MMTV-ErbB2 tumor cells; assay: Measurement of cell death (apoptosis) in transformed tumor cells; type: cell-based, mouse; conditions: for apoptosis rates versus quantity of Cyclin D1: MEFs transformed with P53 negative dominant and RAS G12V, null, low or high Cyclin D1, FIG. 23
Description: (§2) Cell death is induced by exposure to actinomycin D A9415, Sigma, for 6 h, 5-Fluoro uracil (Fluorouracil Winthrop, Sanofi-Aventis) for 24 h, or ethanol (20821.330, VWR) for 6 h and inhibited by exposure to Q-VD-Oph (SML0063, Sigma).
(§3) The cells are washed twice in PBS 1×, unstuck with trypsin and reacted in a marking buffer (10 mM of Hepes pH=7.4, sodium chloride 150 mM, KCl 5 mM, MgCl2 1 mM, CaCl2 1.8 mM). Then the cells were marked with […]-fluorescein isothiocyanate (BD Biosciences) according to the manufacturer's instructions in 0.5 μg/mL of propidium iodide (PI; Sigma-Aldrich P-4170). After 15 min. of incubation in the dark, the cells are analyzed by flux cytometry. The living cells are Annexin V and PI double negatives and the apoptotic cells are positive for Annexin V and negative for PI.

[3] = tested on: dopaminergic neurons; assay: 6-OHDA lesions, survival of mice; type: in vivo, mouse; conditions: FIG. 9
Description: The mice were anesthetized with a mixture of ketamine (Imalgene 500, 50 mg/mL, Merial), 0.9% saline solution (weight/vol) and xylazine (Rompun 2%, […], Bayer) (2:2:1, i.p., 0.1 mL/30 g) and mounted on a stereotaxic apparatus. The 6-OHDA-HCl (Sigma) was dissolved in 0.02% ascorbic acid in a saline solution at a concentration of 3 μg of 6-OHDA/μL. Each mouse received two unilateral injections of 6-OHDA (2 μL/injection) in the right dorsal striatum, according to the following coordinates (in mm): anteroposterior +1, mediolateral −2.1, dorsal ventral −3.1 and anteroposterior +0.3, mediolateral −2.3, and dorsal ventral −3.1. The animals are then released and received a daily injection of glucose solution (50 mg/mL, subcutaneous).

[4] = tested on: male germinal cells; assay: Methoxyacetic acid treatment, mouse testicles; type: in vivo
Description: The mice were sacrificed 14 hours after treatment, for the postmortem analyses.
as §1

[5] = tested on: MEFs transformed with the mouse T antigen; assay: Apoptosis and PARP cleavage in cell lines immortalized by the T antigen; type: cell-based; conditions: FIG. 15; for induced apoptosis as a function of Cyclin D1 level: T antigen immortalized cells, wild vs Ntag/Ntag vs −/−; for cleavage of the PARP: cells with low Cyclin D1 level
Source text: as §1, §2, §3

[6] = tested on: substantia nigra; assay: Methamphetamine model of dopaminergic neurons in mice
Description: The methamphetamine was dissolved in a saline solution at 0.9% (weight/volume) sodium chloride, and injected at a rate of 10 mL/Kg. Several doses of methamphetamine (3 doses of 5 mg/kg at 3 h intervals) were injected intraperitoneally, the first dose being injected at noon. The control mice were treated with the saline solution alone. The mice were sacrificed 24 hours after treatment, for the postmortem analyses.
The mouse organs were washed with PBS 1× at 37° C. and lysed in HTRF buffer (Tris 10 mM, EDTA 1 mM, 0.05% NP-40) using a cell homogenizer. After centrifugation at 16000 g for 5 min., the samples were normalized by adjusting the total quantity of DNA (nanodrop, Thermo Scientific) at 500 ng/mL.

[7] = mice expressing N-terminal tagged Cyclin D1 relative to wild mice, intraperitoneal injection

O=c1[nH]cc(F)c(=O)[nH]1 [5-FU, 5-fluorouracil]
levels of cleaved PARP [1]: increase
apoptosis rates versus quantity of Cyclin D1 [2]: the quantity of Cyclin D1 correlates with the decrease in the apoptosis rates

NCCc1cc(O)c(O)cc1O [6-OHDA, 6-hydroxy dopamine]
survival of wild mice ([3]; CCND1+/+ mice, intrastriatal injection): survive treatment
survival of mice expressing N-terminal tagged Cyclin D1 ([3]; mice expressing little Cyclin D1, intrastriatal injection): die several days after

COCC(=O)O [MAA, methoxyacetic acid]
Cyclin D1 in testicles (HTRF) ([4]; 14 hours after intraperitoneal injection at 150 mg/kg, FIG. 13): decrease
cleaved PARP rate in testicles [4, 7]: increase
germinal cell marker (Vasa) in testicles [4, 7]: massive loss

CC(C)[C@H](NC(=O)c1ccc2ccccc2n1)C(=O)N[C@@H](CC(=O)O)C(=O)COc1c(F)cccc1F [Q-VD-Oph]
apoptosis induced by 5-FU or ethanol ([2]; RAS and ErbB2 lines, Q-VD-Oph 20 μM, FIGS. 24 and 25): shunts the apoptosis

Cc1c2oc3c(C)ccc(C(=O)N[C@@H]4C(=O)N[C@H](C(C)C)C(=O)N5CCC[C@H]5C(=O)N(C)CC(=O)N(C)[C@@H](C(C)C)C(=O)O[C@@H]4C)c3nc-2c(C(=O)N[C@@H]2C(=O)N[C@H](C(C)C)C(=O)N3CCC[C@H]3C(=O)N(C)CC(=O)N(C)[C@@H](C(C)C)C(=O)O[C@@H]2C)c(N)c1=O [actinomycin D] (I: T[dV]P[Sar][NMeV] / II: T[dV]P[Sar][NMeV]; ester I:1-I:C, II:1-II:C; linker I:N-II:N via Actinocin(9to1))
induced apoptosis as a function of Cyclin D1 level [5]: increases with a low Cyclin D1 level
cleavage of the PARP [5]: strong cleavage of the PARP
apoptosis rates versus quantity of Cyclin D1 [2]: the quantity of Cyclin D1 correlates with the decrease in the apoptosis rates

CCO [ethanol]
induced apoptosis as a function of Cyclin D1 level [5]: increases with a low Cyclin D1 level
cleavage of the PARP [5]: strong cleavage of the PARP

CN[C@@H](C)Cc1ccccc1 [methamphetamine]
quantity of Cyclin D1 in the substantia nigra (HTRF) ([6]; CCND1Ntag/Ntag mice, 24 hours after intraperitoneal injection, FIG. 8): decreases
cerebral lesions ([6]; animals expressing little Cyclin D1, intraperitoneal 5 mg/kg): increase in cerebral lesions
